Columns and labels:
Balb/c mice [1] = type: in vivo
Procedure: (§1) Balb/c mice were obtained from Charles River Laboratories.
5-Fluorouracil (5-FU) and leucovorin (leucovorin) were obtained from Sigma-Aldrich. […] Gemcitabine was manufactured by Eli Lilly and purchased from Myoderm Inc.
Balb/c female mice were injected with combinations of 5-FU, leucovorin, 5,10-CH2-THFA, and gemcitabine. 5-FU, leucovorin, and 5,10-CH2-THFA were intraperitoneally injected (100 microliters/mouse, 0.6 mg/mouse/drug) for five consecutive days (days 1-5). Gemcitabine was intraperitoneally injected (100 microliters/mouse, 100 micrograms/mouse) every three days (days 1, 4, and 7). All drugs were injected using a 27 gauge insulin needle/syringe. Mouse weights were measured using an analytical balance prior to initiation of drug dosing (pretreatment) and on day 8.

[2] = system: human colon carcinoma HT-29; assay: HT-29 Colorectal Carcinoma Nude Mouse Study #1 (tumor volume, survival); type: in vivo, Nude (nu/nu) mice; conditions: for mean tumor volume: 22 days following treatment initiation, mean±SEM, i.p. dosing, in mm³ (unit assumed)
Procedure: (§2) Nude (nu/nu) mice were obtained from Charles River Laboratories.
5-Fluorouracil (5-FU) was obtained from Calbiochem. Leucovorin (leucovorin) and oxaliplatin were obtained from Sigma-Aldrich.
Finally, cells were resuspended at 2×10^7 cells/ml in PBS. […] All drugs were dosed daily (0.6 mg/mouse/drug) for five consecutive days with the exception of anti-VEGF and oxaliplatin. Anti-VEGF was dosed once (100 microgram/mouse) on day 5. Oxaliplatin was dosed once on day 1 (0.3mg/mouse). In addition, 5,10-CH2-THFA or leucovorin were injected 20 minutes prior to 5-FU injection. Tumor sizes were measured every 2 to 3 days using calipers.
(§3) Statistical analysis of tumor and blood data was performed using GraphPad Prism scientific software. Bonferonni's T test was used to compare tumor sizes between multiple groups. The Logrank test was used to determine statistical differences between group survival curves. In some cases, in which only two groups were compared, Student's T test was used to determine the significance between group measurements.

[3] = system: human colon carcinoma HT-29; assay: Nude mouse study on HT-29 colorectal tumor treatment with capecitabine (Xeloda) (doubling time, survival)
Procedure: Nude (nu/nu) mice were obtained from Simonsen Laboratories. Mice were 6-8 weeks old at the start of all studies. Mice were maintained in isolated, hepa-filter ventilated cages with 4 mice per cage at Perry Scientific's vivarium (San Diego, Calif.).
The human colon carcinoma HT-29 was obtained from American Tissue Culture Collection (ATCC). Cells were maintained in DMEM containing 10% fetal bovine serum (FBS), 2 mM 1-glutamine, 100 units/ml penicillin, and 100 micrograms/ml streptomycin (DMEM-10) in a 37° C., 10% CO2 humidified incubator. Cells were passaged every 2-3 days prior to in vivo experiments.
Capecitabine (Xeloda) was manufactured by Roche Laboratories (Nutley, N.J.) Leucovorin (leucovorin) was obtained from Sigma-Aldrich. 5,10 methylenetetrahydofolate (5,10-CH2-THFA) was manufactured by Eprova AG.
HT-29 cells were prepared for injection as follows: Confluent tissue culture flasks of HT-29 cells were washed once with PBS followed by cell detachment with trypsin. Detached cells were then washed once in DMEM-10 followed by one wash with PBS. Finally, cells were resuspended in PBS at 10^7 cells/ml. […] Tumor sizes and mouse body weights were measured every 2-4 days. Tumor volume was calculated using the following formula: tumor volume=(length×width^2)/2. […]

[4] = Weight loss toxicity in the Xeloda HT-29 nude mouse study; type: in vivo, Nude (nu/nu) mice; conditions: maximum toxicity grade, NCI CTC v3 (grade 1 5-<10% weight loss)
Excerpt: As a surrogate marker for drug toxicity, we examined mouse body weights over time. Using the National Cancer Institute's Common Toxicity Criteria version 3 grading system for weight loss (Table 11), the maximum toxicity grade of weight loss was plotted (FIG. 21). While Xeloda by itself was relatively nontoxic, inducing only grade 1 toxicity in 36% of the mice, leucovorin increased the overall grade 1-3 toxicity to 90% of mice. This increased toxicity is consistent with phase II human clinical trial results showing leucovorin increased Xeloda toxicity parameters such as diarrhea, vomiting, and mucosal inflammation (Van Cutsem, E., M. Findlay, B. Osterwalder, W. Kocha, D. Dailey, R. Pazdur, J. Cassidy, L. Dirix, C. Twelves, D. Allman, J. F. Seitz, J. Scholmerich, H. U. Burger, and J. Verweij. 2000. Capecitabine, an oral fluoropyrimidine carbamate with substantial activity in advanced colorectal cancer: results of a randomized phase II study. J Clin Oncol 18:1337).

[5] = system: human colon carcinoma HT-29; assay: HT-29 Colorectal Carcinoma Nude Mouse Study #2 (doubling time, tumor volume, survival); type: in vivo, Nude (nu/nu) mice
Excerpt: as §2
5-Fluorouracil (5-FU) was obtained from Calbiochem. Leucovorin (leucovorin) and oxaliplatin were obtained from Sigma-Aldrich. 5,10 methylenetetrahydofolate was manufactured by Eprova AG. A monoclonal antibody to vascular endothelial growth factor (anti-VEGF) was either obtained from R&D Systems (clone 26503 recognizing the human VEGF isoform 165) or Genentech (Avastin).
Finally, cells were resuspended at 1×10^7 cells/ml in PBS. […] All drugs were dosed daily (0.6 mg/mouse/drug) for seven consecutive days with the exception of anti-VEGF, dosed twice (100 micrograms/mouse) on days 1 and 7. In addition, 5,10-CH2-THFA or leucovorin were injected 20 minutes prior to 5-FU injection. Tumor sizes were measured every 2 to 3 days using calipers.
as §3

Balb/c mice [6] = system: Balb/c mice
Procedure: as §1
5-Fluorouracil (5-FU) was obtained from Calbiochem. Leucovorin (folinic acid) was obtained from Sigma-Aldrich.
All drugs were intraperitoneally injected (100 microliters/mouse, 0.6mg/mouse/drug) using a 28 gauge insulin needle/syringe. 200-250 microliters blood/mouse was collected by retro-orbital puncture into EDTA-coated microtainer tubes (VWR International) on days 0 (prior to drug injection), 8, and 13. Complete blood counts plus blood differentials were determined by Labcorp Corporation of America using a Bayer Advia 120 Hematology analyzer.

[7] = female, Balb/c, mouse, in vivo, 8 day
[8] = female, Balb/c, mouse, in vivo, 1 week following drug treatment

With `Nc1ccn([C@@H]2O[C@H](CO)[C@@H](O)C2(F)F)c(=O)n1` [gemcitabine] the “weight loss toxicity grade” value (Balb/c mice [1]; [7]) was “grade 1”.

With `O=C1[O][Pt]2([NH][C@@H]3CCCC[C@H]3[NH]2)[O]C1=O` [Oxaliplatin, oxaliplatin] the mean tumor volume ([2]; Nude mice bearing HT-29 tumor) was 875.0±90.6 and the “response of HT-29 tumor to drug” value ([2]; largest tumors of all groups, FIG. 4) was “not responsive”.

With `CCCCCOC(=O)Nc1nc(=O)n([C@@H]2O[C@H](C)[C@@H](O)[C@H]2O)cc1F` [Xeloda, N4-pentoxylcarbonyl-5′-deoxy-5-fluorocytidine] the “Tumor Doubling Time” value ([3]; from best-fit linear regression of exponential tumor growth, 14 consecutive days dosing) was 10.1 days, the survival ([3]; on day 33 of the experiment (day 1 = first day of drug dosing)) was 38% and the “mice with grade 1 weight loss toxicity (only grade seen)” value [4] was 36%.

With `O=c1[nH]cc(F)c(=O)[nH]1` [5-FU, 5-fluorouracil] the “mice with grade 2-3 weight loss toxicity” value (Balb/c mice [1]; [7]) was 100%, the “mice surviving for up to 14 days” value (Balb/c mice [1]; normal Balb/c mice) was 36% and the mean tumor volume ([2]; Nude mice bearing HT-29 tumor) was 752.5±104.2. The “mice still alive (survival)” value ([2]; at completion of the study period (42 days), Nude mice bearing HT-29 tumor) was 25%, the mean tumor volume ([5]; 19 days following treatment initiation, mean±SEM, in mm³ (unit assumed)) was 368.5±63.7 and the “Tumor Doubling Time” value ([5]; from best-fit curve analysis, Nude mice bearing HT-29 tumor) was 7.4 days. The “mice with Grade 3-4 lymphopenia” value (Balb/c mice [6]; NCI grading on % of baseline lymphocyte levels (Grade 3 25-<50% LLN, Grade 4 <25% LLN), one week following drug treatment) was 100%, the “grade 4 neutrophil toxicity mice with neutrophil cell counts between 0 and 99” value (Balb/c mice [6]; female, Balb/c, mouse, in vivo) was 100% and the “mice with grade 4 neutrophil toxicity” value (Balb/c mice [6]; [8]) was 100%. The “mice with grade 4 platelet toxicity” value (Balb/c mice [6]; [8]) was 25%.

From patent publication US20070280944A1, “Use of 5,10-Methylene Tetrahydrofolate for the Treatment of Cancer” (priority 2004, published 2007)
